The record followed here is a melting point compilation (Tetko et al.; mined from patent text by program, amines drawn as free bases though some values may be those of a salt).

Molecules are shown by their SMILES. Where only a bound is given, the exact number is not on record here.

By melting point is commonly meant the temperature, or range, at which the solid turns liquid.

`COC(=O)Cc1ccccc1SCc1cccc(OC)c1` showed a melting point of 87 to 89 °C.
`CC(C)(C)OC(=O)NCCNC(=O)c1ncccc1OCc1ccccc1` showed a melting point of 145 to 147 °C.
With `CCOC(=O)C1=C(N)NC(N)=C(C(=O)OC(C)C)C1c1ccccc1[N+](=O)[O-]` (stereo unspecified), the melting point was determined as 110 °C.
Turning to `CCC(CC)Cn1c(=O)c(=O)[nH]c2cc(Cl)c([N+](=O)[O-])cc21`, the melting point lay within 232 to 233 °C.
Next, `CCCCNC(=O)c1ccc2c(c1)[C@H]1OCCN(CCC)[C@@H]1CC2` (relative stereo): 128 to 131 °C; `CS(=O)c1ccc(-c2nc3n(c2-c2ccncc2)CCC3)cc1` (stereo unspecified): 164 to 166 °C.
Turning to `NCC1Cc2cc(C(F)(F)F)cc(-c3ccc(C(F)(F)F)cc3)c2O1` (stereo unspecified), the melting point is over 250 °C.
The compound `CC(C)(C)OC(=O)c1ccc(N)cc1F` came in with a melting point of 100 to 101 °C.
Next, `CCN(CC)c1nc2ccccc2n2c(C(C)C)nnc12`: 93 to 95 °C; `COc1c(C(=O)O)cc(Cl)c2c1CCCN2`: 129 to 132 °C; `CC(C)COc1nc(N)c2ncn(C3CCCCC3)c2n1`: 123 to 134 °C.
For `COc1cc(Nc2c(C#N)cnc3cc(F)c(OCCN4CCOCC4)cc23)c(Cl)cc1Cl` the value was 166 to 168 °C; for `CCCc1ccc(S(=O)(=O)NCC2CCN(S(=O)(=O)c3ccc(CCC)cc3)CC2)cc1`, 158 to 159 °C.
`Nc1c(C(=O)c2ccccc2)[nH]c2cc(Cl)ccc12` registered a melting point of 128 to 130 °C.
In the case of `CC1=C(C(=O)OC(C)(C)C)C(c2cccc(F)c2F)C(C(=O)OC(C)(C)C)=C(C)N1`, the melting point was 192 to 194 °C.
Next, `Cc1nc2cc3c(cc2c(=O)[nH]1)C(N(C)c1ccc(C(=O)NC(CCc2nnn[nH]2)C(=O)O)nc1)CC3` (racemic): 248 to 250 °C.
Turning to `CC(C)Cc1cccc(CCCn2c(=O)c3c(N4CCN(C)CC4)cc(Cl)cc3n(Cc3ccccc3)c2=O)c1`, the melting point lay within 56 to 62 °C.
Consider `COCCOc1ccc2c(Cl)c(C#N)cnc2c1`, for which the melting point was in the range of 143 to 145 °C.
For `FC(F)(F)c1cc(Cl)c(-n2cnc(I)n2)c(Cl)c1` the value was 130 to 132 °C; for `CCCCCCCCCCCCCCCCCCOc1ccc(C(=O)C(Sc2nnnn2-c2ccccc2)c2ccc([N+](=O)[O-])cc2)cc1` (stereo unspecified), 82 to 95 °C.
As to `O=C1CNc2ncc(-c3cnc4[nH]ccc4c3)nc2N1CCC1CCOCC1`, the melting point was 255 to 258 °C.
Compound `Cc1nc2c(OCc3c(Cl)ccc(N(C)C(=O)CN)c3Cl)cccn2c1Br` had a melting point of 175 to 178 °C.
In turn, `COc1ccc(S(=O)(=O)Nc2cccnc2Nc2ccc(OC(=O)C(C)(C)C)cc2)cc1` yielded a melting point of 188 to 189 °C.
Next, `CC1CC(=O)NN=C1c1ccc2c(c1)NCC(c1ccccc1)N2` (stereo unspecified): 209 to 215 °C.
For `C[C@H](Cc1cc2c(c(C(N)=O)c1)N(CCCCOCc1ccccc1)CC2)NCCOc1ccccc1OCC(F)(F)F` the value was 101 to 102 °C.
Next, `COCCOc1cc2ncnc(C3C(=O)N(C=O)c4ccccc43)c2cc1OC` (stereo unspecified): 228 to 230 °C.
`Cc1cc(-c2cc(C(F)(F)F)n3cnc(-c4cccnc4)c3n2)ccc1Cl` had a melting point of 210 °C.
Consider `CC(COc1ccc2c(c1)CCCC2=O)n1ccnc1` (stereo unspecified), for which the melting point was in the range of 132 to 135 °C.
Turning to `CC(C)(C)c1cc(SC2(Sc3cc(C(C)(C)C)c(O)c(C(C)(C)C)c3)CCCC2)cc(C(C)(C)C)c1O`, the melting point is 138 to 143 °C.
In the case of `Cc1cnc(NC(=O)C2=C(O)c3ccc(F)cc3S(=O)(=O)N2C)s1`, the melting point turned out to be 233 °C.
Take `O=[N+]([O-])c1cccnc1Nc1ccncc1`: the melting point was 165 to 167 °C.
As to `CC(=O)Nc1nc(O)c2cc(C=Cc3ccc(C(=O)O)cc3)cnc2n1`, the melting point was over 300 °C.
`CC(=O)C(C(=O)Cc1ccccc1)C(=O)NS(=O)(=O)c1ccc(C)cc1` (stereo unspecified) registered a melting point of 120 °C.
Regarding `Cc1noc(NS(=O)(=O)c2ccsc2-c2ccccc2)c1Br`, the melting point is 86 to 89 °C.
On to `Cc1nc(N2CCc3ccccc3CC2)c(C#N)c(=O)n1N(C)C`, for which the melting point fell in the range of 134 to 136 °C.
With `CN1CCC(N(C)c2ncc3ncnc(Nc4ccc(N)c([N+](=O)[O-])c4)c3n2)CC1`, the melting point lay within 242 to 246 °C.
For the compound `O=C(Cc1ccc(F)cc1)Nc1cccc2nc(N[C@@H]3CCc4ccccc43)ccc12`, the melting point was 207 °C.
As to `CNC(=O)c1ccc(-c2n[nH]c3c2Cc2ccccc2-3)cc1`, the melting point was in the range of 182 to 188 °C.
As for `O=Cc1ccc(CSCCN2C(=O)c3ccccc3C2=O)o1`, the melting point fell in the range of 76 to 77 °C.
With `CCOc1cc2c(Nc3cc(OC)c(Cl)cc3Cl)c(C#N)cnc2cc1Br`, the melting point was over 250 °C.
As to `CCC(OC(=O)C1CC1)c1ccc(Cl)c2nc3n(c12)CCCN3c1ncc(Cl)cc1Cl` (stereo unspecified), the melting point lay within 154 to 155 °C.
Next, `N#Cc1[nH]c2ccc([N+](=O)[O-])cc2c1-c1ccccc1`: 242 to 254 °C.
Next, `CCn1cc(C(=O)O)c(=O)c2cc(F)c(N3CCN4CCC3CC4)c(F)c21`: 261 to 263 °C.
On to `CCCCCCc1cc(C(=O)O)c(N)s1`, for which the melting point lay within 80 to 81 °C.
With `O=Cc1ccc(-c2ccc(Br)cc2)nc1`, the melting point fell in the range of 108 to 109 °C.
For `CS(=O)(=O)N1CCN(S(=O)(=O)c2ccc3c(c2)S(=O)(=O)NC(C2CCCCC2)N3)CC1` (stereo unspecified) the value was 272 to 274 °C; for `COc1ccccc1N(CC(=O)OC(C)(C)C)C(=O)CN1C(=O)c2ccccc2C1=O`, 144 °C.
As for `OC1CSC(Oc2cccnc2-c2ccco2)C(O)C1O` (stereo unspecified), the melting point worked out at 184 °C.
`O=C(O)c1ccc(O)c(Oc2ccccc2)c1` displayed a melting point of 181 to 183 °C.
As for `Clc1ccccc1CSc1nc2cccc3c2n1CCC3`, the melting point was in the range of 157 to 159 °C.
The compound `CCCCC1=Nc2sccc2C(=CN)N1CCC` registered a melting point of 45 to 47 °C.
For `N#Cc1ccc(C(=O)N2CCc3cc(S(=O)(=O)N4CC(c5ccccc5)NC4=O)ccc32)cc1` (stereo unspecified) the value was 241 to 243 °C; for `CN(C)C(=S)N(C)Cc1ccc(CCn2cnc3cc(-c4ccc(Cl)cc4)sc3c2=O)cc1`, 156 to 158 °C.
Turning to `CCCCc1nc(=O)c2cc(-c3nnn[nH]3)ccc2[nH]1`, the melting point was 225 °C.
The compound `O=C(/C=C/c1cc(O)c(O)c([N+](=O)[O-])c1)CCCCC(=O)Nc1ccc(C(F)(F)F)cc1` returned a melting point of 194 to 197 °C.
For `CC(=O)Nc1ccc(S(=O)(=O)NCC2CCN(C[C@H]3COc4ccc(Cl)cc4O3)CC2)cc1` the value was 173 to 176 °C.
In turn, `CC(C)(C)OC(=O)[C@H]1C[C@H](C(=O)Nc2ccccc2)[C@@H](c2ccccc2)N1C(=O)CNC(=O)Nc1cccc(C(=O)O)c1` (racemic) displayed a melting point of 160 °C.
For `Cn1c(=O)c(=O)[nH]c2ccccc21` the value was 277 to 286 °C; for `CNC(=O)c1ccc(Cl)nc1`, 150 to 154 °C.
For `Cc1cc([N+](=O)[O-])ccc1NC=O` the value was 162 °C; for `CCCCc1nc2c(C)cccc2n1Cc1cc(C(=O)OC)no1`, 96 to 101 °C.
